Laboratory results as given in patent publication EP0876160B1, “LIGAND DIRECTED ENZYME PRODRUG THERAPY” (priority 1996, dated 1997).

Legend:
[1] = tested on: human umbilical vein endothelial (Hu-V-ec) cells; experiment: VEGF-directed cytotoxicity assay, cell growth by [3H]-thymidine incorporation; format: cell-based
Procedure: (§1) Confluent Hu-V-ec cells were cultured in the absence (control, lane 1) or presence of 1mM CMDA prodrug (+ CMDA, lane 2) for 18 hours. After incubation, the cells were diluted into fresh dishes (at a dilution of 3 fold) and allowed to grow for a further 6 days after which time the survival of the cells was determined by [^3H] thymidine incorporation. The results are expressed in terms of the % growth in terms of the control, which were considered to represent 100% cell growth.
Confluent Hu-V-ec cells were cultured in the absence of any additions (control, lane 3) or in the presence of CPH6 (27 nM, lane 4), or of V115CPH6 (11nM, lane 5) for 30 min. The cells were then washed 6 times with fresh medium and incubated overnight in the presence of 1mM CMDA. The cells were re-plated at a dilution of 1/3 and allowed to grow for a further 4 days after which time the cell growth was estimated by [3H]thymidine incorporation. The results are expressed in terms of the % growth in terms of the control lane, which were considered to represent 100% cell growth.
The fusion proteins were assesed for their ability to direct the CMDA-dependent killing of cells which express specific receptors for VEGF on their surface. For this analysis, we employed human umbilical vein endothelial (Hu-V-ec) cells, which are dependent for growth on VEGF (Prog Growth Factor Res, 5, 89, 1994). […] The cells were incubated in the presence of CPH6, or V115CPH6 for 30 min to allow the fusion proteins to bind to the cell surface and then the cells were washed to remove unbound protein. CMDA was added and cell survival was determined by [3H]-thymidine incorporation.

[2] = tested on: NIH3T3 cells; experiment: Non-specific cytotoxicity assay, cell growth by [3H]-thymidine incorporation; format: cell-based
Procedure: as §1, with “Confluent NIH3T3” for “Confluent Hu-V-ec”, “prodrug (+CMDA,” for “prodrug (+ CMDA,”, “of 100” for “of 3”
Confluent NIH3T3 cells were cultured in the presence of 1mM CMDA prodrug in the absence of any additions (control, lane 3) or in the presence of the indicated fusion proteins (lanes 4-8). The additions were : lane 4, CPH6; lane 5, CPV161H6; lane 6, V161CPH6; lane 7, V115CPH6; lane 8, pEFCPV109H6. For each fusion, 0.3 to 0.9 nM of the fusions were added as determined by quantitative immunoprotein blotting. The cells were incubated and processed as in section A above for cell growth. […]
For the first assay, we wished to establish that CPH6 and the fusion proteins were able to direct prodrug dependent cyotoxicity of NIH3T3 cells, in a non-targeted manner. […] Samples of the purified proteins were added to NIH3T3 cells in the presence of the CMDA prodrug and the effects on cell viability were determined by measuring cell growth by [3H]-thymidine incorporation.

[3] = biological target: Carboxypeptidase G2 (CPG2) construct CPH6 (c-erbB2 signal peptide, CPG2 amino acids 23-415, three Asn -> Gln glycosylation-site mutations N222, 264 and 272 > Q, (Pseudomonas sp., UniProt P06621, N222Q/N264Q/N272Q)); details: substrate MTX; CPH6 expressed in Sf9 cells, Ni++-NTA purified; 25°C, pH 7.3
Description: (§2) Using this protocol, CPH6, V161CPH6, V115CPH6 and CPV109H6 were all purified from Sf9 cells by Ni++-NTA-Agarose affinity chromatography as described above. These samples were used to determine the affinity of the CPG2 moiety for the substrate MTX.

[4] = biological target: VEGF/CPG2 fusion protein V161CPH6 (VEGF amino acids 1-161 fused to CPG2 amino acids 23-415, polyhistidine tag), SEQ ID No. 8 (UniProt P06621+P15692, form not given/N222Q/N264Q/N272Q); details: substrate MTX; V161CPH6 expressed in Sf9 cells, Ni++-NTA purified; 25°C, pH 7.3
Description: as §2

[5] = biological target: VEGF/CPG2 fusion protein V115CPH6 (VEGF amino acids 1-115 fused to CPG2, polyhistidine tag), SEQ ID No. 10 (UniProt P06621+P15692, form not given/N222Q/N264Q/N272Q); details: substrate MTX; V115CPH6 expressed in Sf9 cells, Ni++-NTA purified; 25°C, pH 7.3
Description: as §2

[6] = biological target: CPG2/VEGF fusion protein CPV109H6 (CPG2 amino acids 23-415 fused via peptide spacer to VEGF amino acids 1-109, polyhistidine tag), SEQ ID No. 18 (UniProt P06621+P15692, form not given/N222Q/N264Q/N272Q); details: substrate MTX; CPV109H6 expressed in Sf9 cells, Ni++-NTA purified; 25°C, pH 7.3
Description: as §2

[7] = biological target: bacterially produced CPG2 (Carboxypeptidase G2, wild type) (Pseudomonas sp., UniProt P06621); details: substrate MTX; cited from earlier work

SMILES | sensitivity (growth rate) ([1]; 1mM CMDA alone, 18 hours) | growth rate of the cells ([1]; cells pre-incubated with CPH6 (27 nM) 30 min, washed, then 1mM CMDA overnight) | inhibition of cell growth ([1]; cells pre-incubated with V115CPH6 (11nM) 30 min, washed, then 1mM CMDA overnight) [%] | growth of cells ([2]; 1mM CMDA alone, 18 hours, then 6 days growth) | cell death ([2]; 1mM CMDA in the presence of sub-nanomolar (0.3 to 0.9 nM) CPH6 or each of the fusion proteins) | Km [3] [µM] | Km [4] [µM] | Km [5] [µM] | Km [6] [µM] | Km [7] [µM]
CS(=O)(=O)OCCN(CCCl)c1ccc(C(=O)N[C@@H](CCC(=O)O)C(=O)O)cc1 [CMDA, N-4-[(2-chloroethyl)(2-mesyloxyethyl)amino]benzoyl-L-glutamic acid] | not significantly sensitive | no significant affect on the growth rate | > 90 | does not significantly affect the growth | complete cell death | – | – | – | – | –
CN(Cc1cnc2nc(N)nc(N)c2n1)c1ccc(C(=O)N[C@@H](CCC(=O)O)C(=O)O)cc1 [MTX, Methotrexate] | – | – | – | – | – | 19.6 ± 3.2 | 18.2 ± 1.5 | 17 ± 1 | 9.1 ± 1.1 | ~10
